Laboratory results reported in patent US8063225B2, “Tricyclic compound derivatives useful in the treatment of neoplastic diseases, inflammatory disorders and immunomodulatory disorders” (Chembridge Corporation, priority 2006, dated 2011).

Columns and labels:
Alk = molecular target: T1, Alk (Homo sapiens, UniProt Q9UM73); test: Tyrosine kinase assay (Kinase-Glo or AlphaScreen), Alk; conditions: biochemical tyrosine kinase assay
T1 construct: 6×His- or GST-tagged kinase domain fragments of the corresponding RTKs expressed in baculovirus system; host or cells: baculovirus system
T1 sequence (Q9UM73 1116-1392 limits assumed, species assumed): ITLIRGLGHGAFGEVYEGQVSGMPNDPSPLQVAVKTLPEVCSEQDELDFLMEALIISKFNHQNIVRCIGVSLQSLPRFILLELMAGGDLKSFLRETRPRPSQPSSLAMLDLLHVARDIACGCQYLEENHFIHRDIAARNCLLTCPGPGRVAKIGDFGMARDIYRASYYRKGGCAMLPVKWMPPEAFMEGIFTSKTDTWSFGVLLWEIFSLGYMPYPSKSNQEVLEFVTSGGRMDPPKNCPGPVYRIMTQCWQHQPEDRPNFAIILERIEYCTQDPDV
In short: (§1)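 Test compounds, eight concentrations from 1 nM to 20 μM, were incubated with tagged recombinant kinase domain, poly(Glu-Tyr, 4:1) and 10 μM ATP. After 60 minutes at 37° C, Kinase-Glo luminescence quantified unconsumed ATP.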

IGF1R tyrosine kinase = molecular target: T2, IGF1R tyrosine kinase (Homo sapiens, UniProt P08069); test: IGF1R tyrosine kinase assay (Kinase-Glo ATP depletion or PT66/PT100 AlphaScreen); conditions: biochemical tyrosine kinase assay
T2 construct: 6×His- or GST-tagged kinase domain fragments of the corresponding RTKs expressed in baculovirus system; host or cells: baculovirus system
T2 sequence (P08069 999-1274 limits assumed): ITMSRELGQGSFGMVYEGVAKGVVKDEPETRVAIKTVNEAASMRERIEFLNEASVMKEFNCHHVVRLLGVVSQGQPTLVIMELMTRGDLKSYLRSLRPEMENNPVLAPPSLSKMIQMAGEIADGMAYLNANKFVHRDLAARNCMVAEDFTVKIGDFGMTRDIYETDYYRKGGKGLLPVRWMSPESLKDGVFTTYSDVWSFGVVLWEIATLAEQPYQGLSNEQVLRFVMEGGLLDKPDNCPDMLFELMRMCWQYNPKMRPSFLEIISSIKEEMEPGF
In short: as §1

[1] = tested on: CHO (chinese hamster ovary); test: Cell proliferation inhibition, Cell Titer-Glo, CHO; type: cell-based; conditions: Cricetulus griseus; cell proliferation assay, CHO cells
Method: (§2) IGF1R and other tyrosine kinase inhibitors can inhibit the proliferation of certain cancer cell lines indicating their possible therapeutic utility for treating the corresponding cancer types. Cancer cell lines of interest and control normal lines, including CHO, HEK293, BA/F3, MM1, H929, COLO205, PC3, DU145, MCF7, Panc1, ACHN, Hep G2, H460, K562, TT, U87-G, CAOV-3, SK-MEL5, Karpas 299, are plated in white, clear-bottomed 384-well cell culture plates at 2500-5000 cells per well and supplied with dilutions of tested compounds After a desired period of time (typically 3 days), the number of viable cells is quantitated by using Cell Titer-Glo Luminescent Cell Viability Assay (Promega), a cell proliferation assay system based on detection of total amount of ATP present as a measure of cell metabolic activity. The plated cells are mixed with the Cell Titer-Glo developing reagent and counted in a luminescence multiwell plate reader according to the standard manufacturer's protocol to generate IC50 curves for cell proliferation inhibition.
(§3) IGF1R and other tyrosine kinase inhibitors can inhibit the proliferation of certain cancer cell lines indicating their possible therapeutic utility for treating the corresponding cancer types. Cancer cell lines of interest and control normal lines, including CHO, HEK293, BA/F3, COLO205, PC3, DU145, MCF7, Panc1, ACHN, Hep G2, H460, K562, TT, U87-MG, CAOV-3, SK-MEL5, Karpas 299 and human multiple myeloma cell lines H929, MM1s, MM1r, UTMC2, CPM2, KMS11, My5, KMS12PE, My7, JJN3, KMS18, U266, SKMM2, RPMI-8226 are plated in white, clear-bottomed 384-well cell culture plates at 2500-5000 cells per well and supplied with dilutions of tested compounds After a desired period of time (typically 3 days), the number of viable cells is quantitated by using Cell Titer-Glo Luminescent Cell Viability Assay (Promega), a cell proliferation assay system based on detection of total amount of ATP present as a measure of cell metabolic activity. The plated cells are mixed with the Cell Titer-Glo developing reagent and counted in a luminescence multiwell plate reader according to the standard manufacturer's protocol to generate IC50 curves for cell proliferation inhibition. Results are typically reported as percent of growth (% viability =(OD72h(compound)−ODday0))/(OD72h(no compound)−ODday0). Alternatively, viable cells are quantitated by using the conventional colorimetric MTT assay. The MTT assay is based on the cleavage of the yellow tetrazolium salt MTT to purple formazan crystal by metabolic active cells. The formazan is then solubilized, and the concentration determined by optical density at 570 nm. The cells plated and incubated with a compound as described above are supplemented with the solution of MTT and incubated for 2-3 hours. The growth medium is removed and dimethyl sulfoxide is added into each well to dissolve the formazan. The absorbance is measured on an ELISA plate reader with a test wavelength of 570 nm and a background subtraction wavelength of 630 nm to obtain sample signal (OD570-OD630). […] The results are reported in terms of IC50 value for a particular compound and a cell line in the standard 3-day proliferation assay using Cell Titer-Glo. […] The results are reported in terms of IC50 value for a particular compound and a cell line in the standard 3-day proliferation assay using MTT assay.

Jak2 = molecular target: T3, Jak2 (Homo sapiens, UniProt O60674); test: Tyrosine kinase assay (Kinase-Glo or AlphaScreen), Jak2; conditions: biochemical tyrosine kinase assay
T3 construct: 6×His- or GST-tagged kinase domain fragments of the corresponding RTKs expressed in baculovirus system; host or cells: baculovirus system
T3 sequence (O60674 849-1124 limits assumed, species assumed): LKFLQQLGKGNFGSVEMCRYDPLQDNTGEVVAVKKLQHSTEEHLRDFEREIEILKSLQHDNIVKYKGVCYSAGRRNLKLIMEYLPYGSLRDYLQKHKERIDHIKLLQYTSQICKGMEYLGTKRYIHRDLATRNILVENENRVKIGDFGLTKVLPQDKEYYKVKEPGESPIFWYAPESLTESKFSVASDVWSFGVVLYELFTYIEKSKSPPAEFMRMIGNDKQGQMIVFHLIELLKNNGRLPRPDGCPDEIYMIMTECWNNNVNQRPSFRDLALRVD
In short: as §1

H929 (multiple myeloma) = test: Cell proliferation inhibition, Cell Titer-Glo, H929; type: cell-based; conditions: Homo sapiens, NCI-H929; cell proliferation assay, H929 cells
In short: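 Cells seeded at 2500-5000 per well with serially diluted compound for typically 3 days. Viable cells measured by ATP luminescence (Cell Titer-Glo); IC50 from proliferation-inhibition curves.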

InsR = molecular target: T4, InsR (Homo sapiens, UniProt P06213); test: Tyrosine kinase assay (Kinase-Glo or AlphaScreen), InsR; conditions: biochemical tyrosine kinase assay
T4 construct: 6×His- or GST-tagged kinase domain fragments of the corresponding RTKs expressed in baculovirus system; host or cells: baculovirus system
T4 sequence (P06213 1023-1298 limits assumed, species assumed): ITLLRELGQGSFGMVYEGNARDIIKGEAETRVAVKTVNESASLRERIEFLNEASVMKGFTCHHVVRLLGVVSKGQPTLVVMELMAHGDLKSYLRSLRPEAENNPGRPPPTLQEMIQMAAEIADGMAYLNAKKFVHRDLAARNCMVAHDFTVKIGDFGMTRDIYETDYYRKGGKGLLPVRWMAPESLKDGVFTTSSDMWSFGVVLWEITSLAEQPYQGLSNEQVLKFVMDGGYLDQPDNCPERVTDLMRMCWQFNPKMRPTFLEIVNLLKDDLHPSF
In short: as §1

[2] = tested on: HEK293 (human normal embryonic kidney); test: Cell proliferation inhibition, Cell Titer-Glo, HEK293; type: cell-based; conditions: cell proliferation assay, HEK293 cells, read-out: HEK 293 IC50
Method: as §2, §3

Ba/F3 = test: Cell proliferation inhibition, Cell Titer-Glo, Ba/F3; type: cell-based; conditions: Mus musculus, BaF3; cell proliferation assay, Ba/F3 cells
In short: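 Ba/F3 cells were seeded at 2500-5000 cells per well in white, clear-bottomed 384-well culture plates and exposed to serial dilutions of test compounds for 3 days. Cell Titer-Glo Luminescent Cell Viability Assay (Promega) reagent, which measures total ATP as an indicator of metabolic activity, was added. Luminescence was read on a multiwell plate reader to derive IC50 values for inhibition of proliferation.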

Karpas-299 = test: Cell proliferation inhibition, Cell Titer-Glo, Karpas-299; type: cell-based; conditions: Homo sapiens; cell proliferation assay, Karpas-299 cells
In short: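 Karpas 299 cells were seeded into white, clear-bottomed 384-well culture plates at 2500-5000 cells per well and exposed to serial dilutions of test compounds for about 3 days. Viable cell numbers were then measured with the Cell Titer-Glo Luminescent Cell Viability Assay (Promega), which detects total ATP, and IC50 values for proliferation inhibition were derived.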

K562 = test: Cell proliferation inhibition, Cell Titer-Glo, K562; type: cell-based; conditions: Homo sapiens; cell proliferation assay, K562 cells
In short: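 K562 cells were seeded at 2500-5000 cells per well in white, clear-bottomed 384-well culture plates and treated with dilutions of test compounds for typically 3 days. Viable cells were quantified with the Cell Titer-Glo Luminescent Cell Viability Assay (Promega), which measures total ATP, read on a luminescence plate reader to derive IC50 values for proliferation inhibition.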

IC50 (Alk) | IC50 (IGF1R tyrosine kinase) | IC50 (Jak2) | IC50 (H929 (multiple myeloma)) | IC50 (InsR) | IC50 (Ba/F3) | IC50 (Karpas-299) | IC50 (K562) | Compound | IC50 [1] | IC50 [2]
0.5 to 5 µM | 0.5 to 5 µM | 0.5 to 5 µM | 5 to 15 µM | < 0.5 µM |  |  |  | CN1CCC(N2Cc3cc4nc(-c5c(N[C@@H](CO)Cc6ccccc6)cc[nH]c5=O)[nH]c4cc3C2=O)CC1 [compound 160] | > 15 µM | 
0.5 to 5 µM | < 0.5 µM | < 0.5 µM | 5 to 15 µM | < 0.5 µM |  |  |  | COc1ccc(OC[C@H](O)CNc2cc[nH]c(=O)c2-c2nc3cc4c(cc3[nH]2)CN(C2CCN(C)CC2)C4=O)c(Cl)c1 [compound 146] | > 15 µM | > 15 µM
5 to 15 µM | < 0.5 µM | < 0.5 µM | 5 to 15 µM | < 0.5 µM |  |  |  | CN1CCC(N2Cc3cc4nc(-c5c(NC[C@@H](O)COc6c(F)ccc(F)c6Cl)cc[nH]c5=O)[nH]c4cc3C2=O)CC1 [compound 155] | > 15 µM | 
0.5 to 5 µM | < 0.5 µM | < 0.5 µM | > 15 µM | < 0.5 µM |  |  |  | CN1CCC(N2Cc3cc4nc(-c5c(NC[C@@H](O)COc6cc7c(cc6Cl)OCO7)cc[nH]c5=O)[nH]c4cc3C2=O)CC1 [compound 157] | > 15 µM | 
0.5 to 5 µM | < 0.5 µM | < 0.5 µM | > 15 µM | < 0.5 µM |  |  |  | Cc1c(OC[C@H](O)CNc2cc[nH]c(=O)c2-c2nc3cc4c(cc3[nH]2)CN(C2CCN(C)CC2)C4=O)ccc2c1OCO2 [compound 169] | > 15 µM | > 15 µM
0.5 to 5 µM | < 0.5 µM | < 0.5 µM | 5 to 15 µM | < 0.5 µM |  |  |  | CN1CCC(N2Cc3cc4[nH]c(-c5c(NC[C@@H](O)COc6c(F)cc(F)cc6Br)cc[nH]c5=O)nc4cc3C2=O)CC1 [compound 164] | 5 to 15 µM | 5 to 15 µM
0.5 to 5 µM | < 0.5 µM | < 0.5 µM | 5 to 15 µM | < 0.5 µM |  |  |  | CCc1c(OC[C@H](O)CNc2cc[nH]c(=O)c2-c2nc3cc4c(cc3[nH]2)CN(C2CCN(C)CC2)C4=O)ccc2c1OCO2 [compound 162] | 5 to 15 µM | 5 to 15 µM
0.5 to 5 µM | < 0.5 µM | < 0.5 µM | 0.5 to 5 µM | < 0.5 µM |  |  |  | CN1CCC(N2Cc3cc4[nH]c(-c5c(NC[C@@H](O)COc6ccc(F)cc6Br)cc[nH]c5=O)nc4cc3C2=O)CC1 [compound 165] | 5 to 15 µM | > 15 µM
0.5 to 5 µM | < 0.5 µM | < 0.5 µM | 5 to 15 µM | < 0.5 µM |  |  |  | CCc1cc2c(cc1OC[C@H](O)CNc1cc[nH]c(=O)c1-c1nc3cc4c(cc3[nH]1)C(=O)N(C1CCN(C)CC1)C4)OCO2 [compound 156] | > 15 µM | 
0.5 to 5 µM | < 0.5 µM | < 0.5 µM | 5 to 15 µM | < 0.5 µM |  |  |  | CN1CCC(N2Cc3cc4nc(-c5c(NC[C@@H](O)COc6ccc(F)cc6F)cc[nH]c5=O)[nH]c4cc3C2=O)CC1 [compound 148] | 5 to 15 µM | > 15 µM
5 to 15 µM | < 0.5 µM | < 0.5 µM | 0.5 to 5 µM | < 0.5 µM |  |  |  | Cc1ccc(F)c(OC[C@H](O)CNc2cc[nH]c(=O)c2-c2nc3cc4c(cc3[nH]2)C(=O)N(C2CCN(C)CC2)C4)c1Cl [compound 147] | > 15 µM | > 15 µM
0.5 to 5 µM | < 0.5 µM | < 0.5 µM | 0.5 to 5 µM | < 0.5 µM |  |  |  | CN1CCC(N2Cc3cc4[nH]c(-c5c(NC[C@@H](O)COc6ccccc6Br)cc[nH]c5=O)nc4cc3C2=O)CC1 [compound 167] | > 15 µM | > 15 µM
0.5 to 5 µM | < 0.5 µM | < 0.5 µM | 0.5 to 5 µM | < 0.5 µM |  |  |  | Cc1ccc(OC[C@H](O)CNc2cc[nH]c(=O)c2-c2nc3cc4c(cc3[nH]2)CN(C2CCN(C)CC2)C4=O)c(Br)c1 [compound 166] | 5 to 15 µM | > 15 µM
5 to 15 µM | < 0.5 µM | < 0.5 µM | 5 to 15 µM | < 0.5 µM |  |  |  | CN1CCC(N2Cc3cc4nc(-c5c(NC[C@@H](O)COc6c(F)cccc6Cl)cc[nH]c5=O)[nH]c4cc3C2=O)CC1 [compound 153] | > 15 µM | 
0.5 to 5 µM | < 0.5 µM | < 0.5 µM | 5 to 15 µM | < 0.5 µM |  |  |  | CN1CCC(N2Cc3cc4nc(-c5c(NC[C@@H](O)COc6cc(F)cc(F)c6Cl)cc[nH]c5=O)[nH]c4cc3C2=O)CC1 [compound 152] | > 15 µM | 
0.5 to 5 µM | < 0.5 µM | < 0.5 µM | 5 to 15 µM | < 0.5 µM |  |  |  | CN1CCC(N2Cc3cc4[nH]c(-c5c(NC[C@@H](O)COc6cc(F)c(F)cc6Br)cc[nH]c5=O)nc4cc3C2=O)CC1 [compound 168] | > 15 µM | > 15 µM
0.5 to 5 µM | < 0.5 µM | 0.5 to 5 µM | 5 to 15 µM | < 0.5 µM | > 15 µM | 5 to 15 µM | > 15 µM | CC(=N)N1CCC(N2C(=O)c3cc4nc(-c5c(NC[C@@H](O)COc6ccc(C)cc6C)cc[nH]c5=O)[nH]c4cc3C2=O)CC1 [compound 161] | > 15 µM | > 15 µM
0.5 to 5 µM | < 0.5 µM | < 0.5 µM | 5 to 15 µM | < 0.5 µM |  |  |  | CN1CCC(N2Cc3cc4[nH]c(-c5c(NC[C@@H](O)COc6ccc7c(c6Cl)OCO7)cc[nH]c5=O)nc4cc3C2=O)CC1 [compound 163] | > 15 µM | 5 to 15 µM
< 0.5 µM | < 0.5 µM | < 0.5 µM | 0.5 to 5 µM | < 0.5 µM |  |  |  | CN1CCC(N2Cc3cc4nc(-c5c(NC[C@@H](O)COc6ccccc6C(F)(F)F)cc[nH]c5=O)[nH]c4cc3C2=O)CC1 [compound 149] | > 15 µM | 5 to 15 µM
